Earlier results, collected in patent US20080064694A1, “Multi-Phase Release Methscopolamine Compositions” (Auriga Laboratories, Inc., priority 2006, published 2008).
“Also recorded” adds a separate entry of the source.

Details: following administration of methscopolamine bromide

For “[7(S)-( 1α, 2β, 4β, 5α, 7β)]-7-(3-hydroxy-1oxo-2-phenylpropoxy)-9,9-dimethyl-3-Oxo-9-azoniatricyclo[3.3.1.0]nonane [Methscopolamine bromide]”, the adverse reactions observed is given as “Tachycardia, palpitation; also recorded: Severe allergic reaction or drug idiosyncrasies including anaphylaxis; also recorded: Headaches, nervousness, mental confusion, drowsiness, dizziness; also recorded: Blurred vision, dilation of the pupil, cycloplegia, increased ocular tension, loss of taste; also recorded: Urinary hesitancy and retention; also recorded: Nausea, vomiting, constipation, bloated feeling; also recorded: Decreased sweating, urticaria and other dermal manifestations; also recorded: Xerostomia, weakness, insomnia, impotence, suppression of lactation”.
